# US10670605B2, “Cysteine reactive probes and uses thereof” (The Scripps Research Institute, priority 2015, dated 2020)
# Key:
# Test in all cases: Competitive isoTOP-ABPP in situ (fragment-treated cells)
# Assay type in all cases: cell-based
# [1] = biological target: T1, cysteines in MDA-MB-231 and Ramos cells (Homo sapiens, UniProt P29590)
# T1 sequence (P29590 1-882): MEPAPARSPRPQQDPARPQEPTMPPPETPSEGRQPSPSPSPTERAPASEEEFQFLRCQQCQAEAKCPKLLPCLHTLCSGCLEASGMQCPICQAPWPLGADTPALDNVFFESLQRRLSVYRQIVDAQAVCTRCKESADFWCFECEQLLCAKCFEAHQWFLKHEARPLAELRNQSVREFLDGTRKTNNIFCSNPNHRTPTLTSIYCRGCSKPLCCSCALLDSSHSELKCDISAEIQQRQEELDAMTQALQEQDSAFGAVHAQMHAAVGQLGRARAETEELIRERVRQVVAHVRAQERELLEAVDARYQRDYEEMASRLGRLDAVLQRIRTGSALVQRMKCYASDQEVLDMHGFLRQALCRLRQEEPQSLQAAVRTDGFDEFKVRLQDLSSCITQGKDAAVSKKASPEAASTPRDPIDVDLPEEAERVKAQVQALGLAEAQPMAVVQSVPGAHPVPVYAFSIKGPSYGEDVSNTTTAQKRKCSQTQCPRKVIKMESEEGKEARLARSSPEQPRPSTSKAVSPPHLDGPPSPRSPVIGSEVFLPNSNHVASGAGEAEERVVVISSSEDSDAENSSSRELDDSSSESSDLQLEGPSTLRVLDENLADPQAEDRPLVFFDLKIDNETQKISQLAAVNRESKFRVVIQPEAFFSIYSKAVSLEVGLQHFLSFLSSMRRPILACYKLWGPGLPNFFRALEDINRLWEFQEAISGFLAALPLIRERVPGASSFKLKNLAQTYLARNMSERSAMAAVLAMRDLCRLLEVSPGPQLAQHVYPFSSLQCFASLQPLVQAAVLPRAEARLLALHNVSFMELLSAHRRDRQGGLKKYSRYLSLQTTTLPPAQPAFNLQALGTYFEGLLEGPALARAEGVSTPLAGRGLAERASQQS
# [2] = biological target: cysteines in MDA-MB-231 and Ramos cells (Homo sapiens, UniProt Q96EY5)
# [3] = biological target: T2, cysteines in MDA-MB-231 and Ramos cells (Homo sapiens, UniProt Q9NX18)
# T2 sequence (Q9NX18 30-166): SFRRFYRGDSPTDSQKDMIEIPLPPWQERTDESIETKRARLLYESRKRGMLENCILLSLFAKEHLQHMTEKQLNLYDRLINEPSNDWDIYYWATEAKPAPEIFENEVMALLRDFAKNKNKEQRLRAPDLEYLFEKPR
# [4] = biological target: T3, cysteines in MDA-MB-231 and Ramos cells (Homo sapiens, UniProt Q9NXV6)
# T3 sequence (Q9NXV6 1-580): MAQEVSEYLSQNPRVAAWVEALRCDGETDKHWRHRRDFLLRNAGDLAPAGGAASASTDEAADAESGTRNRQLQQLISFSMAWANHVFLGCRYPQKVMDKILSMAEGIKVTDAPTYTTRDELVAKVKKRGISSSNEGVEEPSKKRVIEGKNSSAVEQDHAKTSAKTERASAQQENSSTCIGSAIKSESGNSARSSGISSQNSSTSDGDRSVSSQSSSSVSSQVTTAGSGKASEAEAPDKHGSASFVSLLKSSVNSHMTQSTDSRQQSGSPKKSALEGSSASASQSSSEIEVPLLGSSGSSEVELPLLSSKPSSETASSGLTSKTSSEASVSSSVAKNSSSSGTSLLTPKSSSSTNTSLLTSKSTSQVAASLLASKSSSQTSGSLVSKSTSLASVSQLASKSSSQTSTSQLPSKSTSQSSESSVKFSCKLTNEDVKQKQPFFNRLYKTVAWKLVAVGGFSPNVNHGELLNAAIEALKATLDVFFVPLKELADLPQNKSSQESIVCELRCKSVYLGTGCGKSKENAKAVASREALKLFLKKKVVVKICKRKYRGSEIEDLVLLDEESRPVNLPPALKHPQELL
# [5] = biological target: T4, cysteines in MDA-MB-231 and Ramos cells (Homo sapiens, UniProt A0AVT1); conditions: for isoTOP-ABPP ratio A0AVT1_C347: 231
# T4 sequence (A0AVT1 1-1052): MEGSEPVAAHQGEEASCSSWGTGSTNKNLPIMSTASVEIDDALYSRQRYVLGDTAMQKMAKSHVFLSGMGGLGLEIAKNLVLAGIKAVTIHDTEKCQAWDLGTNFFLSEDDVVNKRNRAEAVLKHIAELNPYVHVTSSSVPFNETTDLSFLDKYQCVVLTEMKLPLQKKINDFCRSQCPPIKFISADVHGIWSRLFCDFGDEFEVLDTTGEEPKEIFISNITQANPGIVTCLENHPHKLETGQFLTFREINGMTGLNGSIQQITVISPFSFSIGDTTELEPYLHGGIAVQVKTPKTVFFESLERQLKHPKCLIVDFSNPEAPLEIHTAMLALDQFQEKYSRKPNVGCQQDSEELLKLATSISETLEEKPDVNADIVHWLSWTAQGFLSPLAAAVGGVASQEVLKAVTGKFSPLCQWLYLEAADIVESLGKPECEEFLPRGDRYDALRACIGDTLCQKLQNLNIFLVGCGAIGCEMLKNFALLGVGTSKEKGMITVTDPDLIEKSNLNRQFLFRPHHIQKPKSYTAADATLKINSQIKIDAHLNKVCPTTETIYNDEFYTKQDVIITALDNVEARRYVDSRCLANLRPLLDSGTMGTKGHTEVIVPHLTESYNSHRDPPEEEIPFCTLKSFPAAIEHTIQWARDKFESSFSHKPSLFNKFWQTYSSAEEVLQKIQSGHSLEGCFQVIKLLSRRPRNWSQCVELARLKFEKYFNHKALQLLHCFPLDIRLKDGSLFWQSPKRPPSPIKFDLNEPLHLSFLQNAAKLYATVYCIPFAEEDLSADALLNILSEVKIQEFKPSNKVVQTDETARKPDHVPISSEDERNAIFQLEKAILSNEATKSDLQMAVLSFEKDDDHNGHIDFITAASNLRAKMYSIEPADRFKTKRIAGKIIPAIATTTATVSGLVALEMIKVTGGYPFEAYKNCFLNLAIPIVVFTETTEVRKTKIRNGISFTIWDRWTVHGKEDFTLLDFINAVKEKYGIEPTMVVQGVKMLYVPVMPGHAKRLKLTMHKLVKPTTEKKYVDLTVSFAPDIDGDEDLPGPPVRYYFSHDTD
# [6] = biological target: cysteines in MDA-MB-231 and Ramos cells (Homo sapiens, UniProt P52948); conditions: 200 μM, insitu, 231
# Chain of cysteines in MDA-MB-231 and Ramos cells (Homo sapiens, UniProt P52948) (P52948 whole entry): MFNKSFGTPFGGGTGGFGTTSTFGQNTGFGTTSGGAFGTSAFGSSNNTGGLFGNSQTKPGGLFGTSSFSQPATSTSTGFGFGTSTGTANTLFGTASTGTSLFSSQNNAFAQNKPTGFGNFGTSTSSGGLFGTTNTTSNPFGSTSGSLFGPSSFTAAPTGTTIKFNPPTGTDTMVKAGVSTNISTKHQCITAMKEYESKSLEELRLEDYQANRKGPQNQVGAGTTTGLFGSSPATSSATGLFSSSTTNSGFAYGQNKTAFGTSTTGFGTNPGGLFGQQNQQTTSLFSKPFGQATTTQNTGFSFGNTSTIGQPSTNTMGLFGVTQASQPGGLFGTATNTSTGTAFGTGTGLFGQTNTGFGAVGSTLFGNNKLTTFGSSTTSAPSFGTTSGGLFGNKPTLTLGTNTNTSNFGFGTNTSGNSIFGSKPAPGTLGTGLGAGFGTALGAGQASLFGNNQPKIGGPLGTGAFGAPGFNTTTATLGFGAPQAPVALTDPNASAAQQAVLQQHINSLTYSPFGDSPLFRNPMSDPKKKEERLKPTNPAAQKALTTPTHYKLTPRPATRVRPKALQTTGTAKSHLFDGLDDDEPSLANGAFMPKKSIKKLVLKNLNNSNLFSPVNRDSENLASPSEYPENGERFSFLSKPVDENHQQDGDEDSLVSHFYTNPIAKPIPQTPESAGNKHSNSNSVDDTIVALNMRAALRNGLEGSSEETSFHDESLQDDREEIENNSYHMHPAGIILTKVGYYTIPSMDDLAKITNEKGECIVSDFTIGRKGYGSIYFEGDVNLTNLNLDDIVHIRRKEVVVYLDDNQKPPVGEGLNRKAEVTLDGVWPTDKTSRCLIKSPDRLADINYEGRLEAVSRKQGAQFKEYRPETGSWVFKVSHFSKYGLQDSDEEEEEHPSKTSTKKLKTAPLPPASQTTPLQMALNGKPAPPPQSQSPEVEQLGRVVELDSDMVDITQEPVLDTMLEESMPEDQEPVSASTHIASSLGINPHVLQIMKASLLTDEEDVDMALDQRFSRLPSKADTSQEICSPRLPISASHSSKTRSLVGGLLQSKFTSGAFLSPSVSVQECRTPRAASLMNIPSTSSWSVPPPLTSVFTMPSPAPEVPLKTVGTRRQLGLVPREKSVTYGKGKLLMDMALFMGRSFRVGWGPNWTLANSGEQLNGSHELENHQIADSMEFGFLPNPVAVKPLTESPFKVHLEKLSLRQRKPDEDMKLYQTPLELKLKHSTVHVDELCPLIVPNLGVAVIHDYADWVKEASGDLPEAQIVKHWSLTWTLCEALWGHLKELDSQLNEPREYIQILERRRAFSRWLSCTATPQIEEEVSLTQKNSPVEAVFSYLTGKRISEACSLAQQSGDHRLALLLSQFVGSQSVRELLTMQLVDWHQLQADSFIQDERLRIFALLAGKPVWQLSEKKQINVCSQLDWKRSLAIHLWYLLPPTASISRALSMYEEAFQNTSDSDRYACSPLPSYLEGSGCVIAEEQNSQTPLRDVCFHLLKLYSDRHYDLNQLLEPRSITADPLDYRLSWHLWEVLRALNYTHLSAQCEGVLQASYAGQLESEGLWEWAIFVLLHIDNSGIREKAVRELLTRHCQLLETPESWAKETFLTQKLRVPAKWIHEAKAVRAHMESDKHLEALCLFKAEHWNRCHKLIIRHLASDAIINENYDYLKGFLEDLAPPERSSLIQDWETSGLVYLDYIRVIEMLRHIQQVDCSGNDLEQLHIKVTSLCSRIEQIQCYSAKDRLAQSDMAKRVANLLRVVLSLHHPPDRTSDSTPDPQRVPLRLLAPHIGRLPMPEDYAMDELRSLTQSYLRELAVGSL
# [7] = biological target: cysteines in MDA-MB-231 and Ramos cells (Homo sapiens, UniProt Q5MNZ6)
# Chain of cysteines in MDA-MB-231 and Ramos cells (Homo sapiens, UniProt Q5MNZ6) (Q5MNZ6 whole entry): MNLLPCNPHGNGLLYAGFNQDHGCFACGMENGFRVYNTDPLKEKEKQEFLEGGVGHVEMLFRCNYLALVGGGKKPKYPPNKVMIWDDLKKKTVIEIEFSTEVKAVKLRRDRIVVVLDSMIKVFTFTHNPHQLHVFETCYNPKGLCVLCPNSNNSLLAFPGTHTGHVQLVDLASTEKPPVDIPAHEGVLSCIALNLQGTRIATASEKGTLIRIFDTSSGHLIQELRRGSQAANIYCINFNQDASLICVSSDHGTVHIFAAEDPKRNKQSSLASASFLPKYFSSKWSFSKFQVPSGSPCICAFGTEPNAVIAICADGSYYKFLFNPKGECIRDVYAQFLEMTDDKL
"isoTOP-ABPP ratio P29590_C389 ([1]; 200 μM, insitu, 231)","isoTOP-ABPP ratio Q9NX18_C83 ([3]; 200 μM, insitu, 231)","isoTOP-ABPP ratio Q9NXV6_C516 ([4]; 200 μM, insitu, 231)","isoTOP-ABPP ratio, cysteine P52948_C1312 [6]","isoTOP-ABPP ratio Q5MNZ6_C63 ([7]; 200 μM, insitu, 231)",Structure (SMILES),other results
0.4,,0.9,,0.8,Cc1ccc(C=C(C#N)C(=O)NCCN2CCOCC2)cc1 [compound 41],"isoTOP-ABPP ratio A0AVT1_C347 ([5]; 200 μM, insitu): 0.6"
,,,,1.7,COc1ccccc1OCCNC(=O)CCl [compound 28],

# The remaining lines, values behind:
Structure (SMILES),"isoTOP-ABPP ratio P29590_C389 ([1]; 200 μM, insitu, 231)","isoTOP-ABPP ratio Q9NX18_C83 ([3]; 200 μM, insitu, 231)","isoTOP-ABPP ratio Q9NXV6_C516 ([4]; 200 μM, insitu, 231)","isoTOP-ABPP ratio, cysteine P52948_C1312 [6]","isoTOP-ABPP ratio Q5MNZ6_C63 ([7]; 200 μM, insitu, 231)",other results
COc1ccc2c(c1)CCCN2C(=O)CCl [compound 2],,,,,,"isoTOP-ABPP reactivity P29590_C389 PML ([1]; 200 μM, insitu, 231): 15.6; isoTOP-ABPP reactivity Q96EY5_C231 FAM125A ([2]; 200 μM, insitu, 231): 4.1; isoTOP-ABPP reactivity Q9NX18_C83 SDHAF2 ([3]; 200 μM, insitu, 231): 3.1; isoTOP-ABPP reactivity Q9NXV6_C516 CDKN2AEP ([4]; 200 μM, insitu, 231): 20.0"
CC(C)CCOCCNC(=O)CCl [compound 27],0.5,1.5,1.4,,,"isoTOP-ABPP ratio A0AVT1_C347 ([5]; 200 μM, insitu): 0.8; reactivity profile of liganded cysteine P29590_C213 with fragment electrophile (isoTOP-ABPP ratio) ([1]; cysteine P29590_C213, fragment 200 μM, in situ, 231 (MDA-MB-231) cells): 0.8; isoTOP-ABPP ratio P52948_C1312 [6]: 1.3; isoTOP-ABPP ratio Q96EY5_C231 ([2]; 200 μM, insitu, 231): 0.6"
O=C(CCl)NC(=O)NC12CC3CC(CC(C3)C1)C2 [compound 12],,20.0,3.3,20.0,20.0,
O=C(CCl)NC12CC3CC(CC(C3)C1)C2 [compound 21],20.0,1.3,0.8,1.1,0.8,"isoTOP-ABPP ratio, cysteine Q96EY5_C231 ([2]; 200 μM, insitu, 231): 0.7"
O=C(CCl)N1CCN(S(=O)(=O)c2ccccc2F)CC1 [compound 10],7.9,4.4,7.7,20.0,3.6,"isoTOP-ABPP ratio, cysteine A0AVT1_C347 ([5]; 200 μM, insitu, ramos): 20.0"
Cn1cc(S(=O)(=O)N2CCOCC2)cc1C(=O)NC(=O)CCl [compound 11],,,,,,"isoTOP-ABPP ratio, cysteine A0AVT1_C347 ([5]; 100 μM in situ 231): 1.6; isoTOP-ABPP ratio P29590_C389 ([1]; 100 μM in situ 231): 0.5; isoTOP-ABPP ratio Q5MNZ6_C63 ([7]; 100 μM in situ 231): 0.9; isoTOP-ABPP ratio, cysteine Q96EY5_C231 ([2]; 100 μM in situ 231): 0.7; isoTOP-ABPP ratio Q9NX18_C83 ([3]; 100 μM in situ 231): 1.1; isoTOP-ABPP ratio Q9NXV6_C516 ([4]; 100 μM in situ 231): 1.0"
